Target: T1, squalene synthetase (Rattus norvegicus, UniProt Q02769)
T1 construct: The brown outer microsomal layer is carefully removed with a spatula and placed in a beaker on ice; from tissue; host or cells: liver microsomes of male Sprague-Dawley rats (105,000 g pellet, washed, not purified)
T1 sequence (Q02769 1-416): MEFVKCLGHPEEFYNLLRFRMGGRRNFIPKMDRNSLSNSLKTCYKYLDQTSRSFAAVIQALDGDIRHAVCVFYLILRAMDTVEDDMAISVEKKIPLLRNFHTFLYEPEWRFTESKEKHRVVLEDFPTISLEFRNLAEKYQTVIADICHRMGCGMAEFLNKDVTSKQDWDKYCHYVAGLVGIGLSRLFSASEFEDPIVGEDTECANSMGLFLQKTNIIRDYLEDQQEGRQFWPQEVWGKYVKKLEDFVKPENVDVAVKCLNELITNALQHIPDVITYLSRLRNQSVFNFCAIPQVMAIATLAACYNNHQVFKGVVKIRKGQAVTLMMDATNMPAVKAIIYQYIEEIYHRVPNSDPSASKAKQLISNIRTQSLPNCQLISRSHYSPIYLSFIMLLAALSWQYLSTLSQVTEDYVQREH
Experiment: Squalene Synthetase Inhibition Assay (SQ SYN)
Format: biochemical, rat (Sprague-Dawley)
Settings: rat liver microsomes, 10 μM 3H-FPP, 0.5 mM β-NADPH, pH 7.5, 10 min preincubation and 10 min incubation, 37° C.
Text: These tests involve such factors as the effect of the compounds of Formula I to inhibit squalene synthesis.
Squalene Synthetase Inhibition Assay
The squalene synthetase assay used is a modification of the procedures described by Popjak (1969) and Poulter et al. (1989):
Popjak, G. Enzymes of sterol biosynthesis in liver and intermediates of sterol biosynthesis. Meth. Enzymol. 15: 393-454, 1969.
Poulter, C. D., Capson, T. L., Thompson, M. D. and Bard R. S. Squalene synthetase. Inhibition by ammonium analogues of carbocationic intermediates in the conversion of presqualene diphosphate to squalene. J. Am. Chem. Soc. 111: 3734-3739, 1989.
I. Animal Source and Tissue Preparation
Four male Sprague-Dawley rats weighing 100-120 gms are fed a low cholesterol rodent diet (#5012) obtained from Purina Mills, Inc. in Richmond, Ind.; and housed under reverse-light. Water is given ad lib. Rats are lightly anesthetized with ether and then decapitated. Livers are removed and enzymes are separated by the method described below.
All Chemicals are "A.C.S." in purity or better unless noted;
AquaSol®-2 scintillation fluid (NEF-952) (Du Pont/NEN Research Products, Boston, Mass.);
Anhydrous MgCl2 (M-8266), β-NADPH tetrasodium salt, reduced form (N-1630), Bovine serum albumin (A-6003), Cholesterol (C-8503);
Squalene (S-3626), (Sigma Chemical Co., St. Louis, Mo.);
Bio-Rad protein assay dye concentrate (Bio-Rad Laboratories, Richmond, Calif.);
Denatured ethanol, DMSO, HCl (1N), KOH, methanol, NaOH (0.1N, 1N), petroleum ether (M-280 grade), potassium phosphate dibasic, 2-propanol (Fisher Scientific, Pittsburgh, Pa.);
Zero grade nitrogen gas mixture (certified analysis) (Woodland Oxygen & Supply Co., Philadelphia, Pa.).
[1-^3 H(N)]-FPP, triammonium salt (NET-1042), (Du Pont/NEN, Boston, Mass.);
Non-radiolabeled FPP is prepared in-house. The solid FPP is aliquoted and stored at -80° C. FPP is dissolved in 70% ethanol/30% 0.25M NH4 HCO3 at the concentration of 10 mM and the solution is aliquoted (200 μl each) and stored at -80° C.
III. Preparation of Assay Substances
Test solutions are prepared fresh in 100% DMSO or dH2 O. Subsequent dilutions are made in the same solvent. Compounds are tested initially at 1 or 10 μM (final concentrations).
Potassium phosphate (50 mM, 8.71 g/l) pH 7.5 stock buffer is prepared and stored at 4° C. until use. Anhydrous MgCl2 is added to the phosphate buffer on the day of assay for a final concentration of 10 mM (95 mg/100 ml). The buffer is flushed with N2 before use.
Non-radiolabeled FPP is diluted to 50 μM (100 μl 10 mM cold FPP+19.9 ml phosphate buffer). Then, 14 μl (20×10^6 dpm) of ^3 H-FPP (0.5 mCi/ml, 0.011 mg/ml) is added. 200 μl of this mixture is added per assay tube for a final reaction concentration of 10 μM FPP (~200,000 dpm/assay tube).
37.5 mg of β-NADPH is added to 9 ml assay buffer for a 5 mM concentration of β-NADPH. The mixture is vortexed and 100 μl of this solution is added to each tube for a final assay concentration of 0.5 mM β-NADPH.
75 gm of KOH is dissolved in 500 ml of denatured ethanol for a 15% solution and stored at 0° C. until use. 1 ml of this solution is added per tube to terminate the reaction.
IV. Experimental Procedure
Immediately following decapitation, livers are removed one at a time from four rats. The livers are combined and weighed in a tared beaker. Assay buffer is added equal to three times the liver weight. The liver is first homogenized with a blender for thirty seconds, and then by a motor driven teflon pestle at a speed of 2.5. During homogenization, the liver is kept on ice. When the liver is fully homogenized, the homogenate is centrifuged at 10,000 g for 30 min at 4° C. in 50 ml capacity centrifuge tubes. The mitochondrial pellet is discarded and the supernatant is filtered through a layer of gauze moistened with a little buffer. This supernatant is recentrifuged at 105,000 g for one hour at 0° C. in an ultracentrifuge in 25 ml capacity ultracentrifuge tubes. […]

SMILES	IC50
O=P(O)(O)C(O)(CCNC1CCc2ccccc21)P(=O)(O)O (centres unmarked)	60 nM
O=P(O)(O)C(O)(CCNC1C2CC3CC(C2)CC1C3)P(=O)(O)O (centres unmarked)	440 nM
O=P(O)(O)C(O)(CCNC1CCCc2ccccc21)P(=O)(O)O (centres unmarked)	130 nM
O=P(O)(O)C(O)(CCNC1CCN(Cc2ccccc2)CC1)P(=O)(O)O	2300 nM
O=P(O)(O)C(O)(CCN1CCC(c2ccccc2)CC1)P(=O)(O)O	370 nM
O=P(O)(O)C(O)(CCN1CC2CCC(CC2)C1)P(=O)(O)O	16 nM
CC1(C)CC2CC(C)(CN2CCC(O)(P(=O)(O)O)P(=O)(O)O)C1 (centres unmarked)	5060 nM
O=P(O)(O)C(O)(CCN1CCC2(CCCCC2)CC1)P(=O)(O)O	390 nM

Continued, values first:

IC50	SMILES
600 nM	O=P(O)(O)C(O)(CCNC1CC2CCC1C2)P(=O)(O)O (centres unmarked)
1460 nM	O=P(O)(O)C(O)(CCNCC1CCCCCC1)P(=O)(O)O
19 nM	O=P(O)(O)C(O)(CCN1CCCC2CCCCC21)P(=O)(O)O (centres unmarked)
720 nM	O=P(O)(O)C(O)(CCN1CCCCC1)P(=O)(O)O
130 nM	O=P(O)(O)C(O)(CCN1CCCCCC1)P(=O)(O)O

Tested on: 1,4-condensation between isopentenyl diphosphate and geranyl diphosphate
Experiment: not given
Settings: J. Am. Chem. Soc., 1987, 109, 5544; cited from earlier work

SMILES	inhibition of the 1,4-condensation (in words)
C=C(C)CCCP(=O)(O)CP(=O)(O)O	competitive inhibitors

— US5317015A, “Azacyclic bisphosphonates as anticholesterolemic agents” (Rhone-Poulenc Rorer Pharmaceuticals Inc., priority 1992, dated 1994)
